Molecular target: STING (Homo sapiens, UniProt Q86WV6, G230A/H232R/R293Q/R71H)
Assay: STING reporter assay in THP1-Dual KO-IFNAR2 cells (2′3′cGAMP stimulation, luciferase reporter)
Format: cell-based
Settings: 15 μM 2′3′cGAMP stimulation, 24 h, read-out: Pharmaron, THP1_IFNAR2 STING 24 h Luci Normalized: GeoMean EC50
Method in brief: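 THP1-Dual KO-IFNAR2 cells (2×10E6 cells/mL) with compounds at 0.0017-100 μM final, stimulated with 15 μM final 2′3′cGAMP delivered by Lipofectamine 2000; 24 h at 37 °C. Luciferase in supernatant read with QUANTI-Luc Plus; EC50 derived from luminescence.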

Sequence of STING (Q86WV6 whole entry R71H/G230A/H232R/R293Q): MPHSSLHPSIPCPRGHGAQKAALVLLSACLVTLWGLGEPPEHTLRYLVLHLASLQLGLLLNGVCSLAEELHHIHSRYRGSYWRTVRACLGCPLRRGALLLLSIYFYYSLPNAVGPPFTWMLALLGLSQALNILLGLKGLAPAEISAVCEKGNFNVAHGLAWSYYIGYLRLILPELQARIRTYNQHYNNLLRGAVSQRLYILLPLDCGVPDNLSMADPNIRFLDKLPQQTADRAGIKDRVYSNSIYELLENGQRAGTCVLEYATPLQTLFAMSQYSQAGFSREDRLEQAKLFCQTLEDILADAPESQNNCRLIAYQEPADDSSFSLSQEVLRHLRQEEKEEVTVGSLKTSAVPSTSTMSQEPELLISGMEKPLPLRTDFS

| SMILES | EC50 [nM] |
| --- | --- |
| CC1(C(=O)Nc2c[nH]c3ccc(O[C@H]4C[C@H](c5ccc(C(F)(F)F)cc5)C4)cc23)CN(CC(F)F)C1 [Compound 483, 1-(2,2-difluoroethyl)-3-methyl-N-(5-(trans-3-(4-(trifluoromethyl)phenyl)cyclobutoxy)-1H-indol-3-yl)azetidine-3-carboxamide] | 40 to 200 |
| CC(=O)Nc1c[nH]c2ccc(OCCc3sc(C(F)(F)F)nc3C)cc12 [Compound 484, N-(5-(2-(4-methyl-2-(trifluoromethyl)thiazol-5-yl)ethoxy)-1H-indol-3-yl)acetamide] | 1000 to 5000 |
| CC1(C(=O)Nc2c[nH]c3ccc(OC[C@@H]4C[C@H]5CC[C@@H](C4)N5CC(F)(F)F)cc23)COC1 [Compound 485, 3-methyl-N-(5-(((1R,3s,5S)-8-(2,2,2-trifluoroethyl)-8-azabicyclo[3.2.1]octan-3-yl)methoxy)-1H-indol-3-yl)oxetane-3-carboxamide] | 1000 to 5000 |
| COCCOCC(=O)Nc1c[nH]c2ccc(O[C@H]3C[C@H](c4ccc(C(F)(F)F)cc4)C3)cc12 [Compound 486, 2-(2-methoxyethoxy)-N-{5-[(1R,3R)-3-[4-(trifluoromethyl)phenyl]cyclobutoxy]-1H-indol-3-yl}acetamide] | 40 to 200 |
| CC1(C(=O)Nc2c[nH]c3ccc(O[C@H]4C[C@H](c5ccc(C(F)(F)F)cc5)C4)cc23)CCCO1 (stereo partly drawn) [Compound 487, 2-methyl-N-{5-[(1R,3R)-3-[4-(trifluoromethyl)phenyl]cyclobutoxy]-1H-indol-3-yl}oxolane-2-carboxamide] | 40 to 200 |
| CC1(C(=O)Nc2c[nH]c3ccc(O[C@H]4C[C@H](c5ccc(C(F)(F)F)cc5)C4)cc23)CCOCC1 [Compound 488, 4-methyl-N-{5-[(1R,3R)-3-[4-(trifluoromethyl)phenyl]cyclobutoxy]-1H-indol-3-yl}oxane-4-carboxamide] | 40 to 200 |
| O=C(Nc1c[nH]c2ccc(O[C@H]3C[C@H](c4ccc(C(F)(F)F)cc4)C3)cc12)C1(F)CC1 [Compound 489, l-fluoro-N-{5-[(1R,3R)-3-[4-(trifluoromethyl)phenyl]cyclobutoxy]-1H-indol-3-yl}cyclopropane-1-carboxamide] | 200 to 1000 |
| CC(=O)Nc1c[nH]c2ccc(CCOc3ccc4c(c3)CCCC4)cc12 [Compound 490, N-(5-[2-(5,6,7,8-tetrahydronaphthalen-2-yloxy)ethyl]-1H-indol-3-yl}acetamide] | 40 to 200 |
| CC(=O)Nc1c[nH]c2ccc(CCOc3ccnc(OC(F)F)c3)cc12 [Compound 491, N-[5-(2-{[2-(difluoromethoxy)pyridin-4-yl]oxy}ethyl)-1H-indol-3-yl]acetamide] | 200 to 1000 |
| CC(=O)Nc1c[nH]c2ccc(COCC34CC(CN3CC(F)(F)F)C4)cc12 [Compound 492, N-(5-(((2-(2,2,2-trifluoroethyl)-2-azabicyclo[2.1.1]hexan-1-yl)methoxy)methyl)-1H-indol-3-yl)acetamide] | 5000 to 100000 |
| O=C(Nc1c[nH]c2ccc(O[C@H]3C[C@H](c4ccc(C(F)(F)F)cc4)C3)cc12)C1CCOCC1 [Compound 493, N-{5-[(1R,3R)-3-[4-(trifluoromethyl)phenyl]cyclobutoxy]-1H-indol-3-yl}oxane-4-carboxamide] | 40 to 200 |
| CC(=O)Nc1c[nH]c2ccc(OC3CCN(c4ccc(C(F)(F)F)cc4)C3)cc12 (stereo not shown) [Compound 494, N-(5-((1-(4-(trifluoromethyl)phenyl)pyrrolidin-3-yl)oxy)-1H-indol-3-yl)acetamide] | 200 to 1000 |
| CC(=O)Nc1c[nH]c2ccc(C#Cc3ccc(C(F)(F)F)cc3)cc12 [Compound 495, N-(5-((4-(trifluoromethyl)phenyl)ethynyl)-1H-indol-3-yl)acetamide] | 1000 to 5000 |
| CC1(C)OC(C)(C)C1C(=O)Nc1c[nH]c2ccc(OCc3ccc(C(F)(F)F)cc3)cc12 [Compound 496, 2,2,4,4-tetramethyl-N-(5-((4-(trifluoromethyl)benzyl)oxy)-1H-indol-3-yl)oxetane-3-carboxamide] | 200 to 1000 |
| CC(=O)Nc1c[nH]c2ccc(OC(C)c3ccc(C(F)(F)F)cc3)cc12 (stereo not shown) [Compound 497, N-(5-(1-(4-(trifluoromethyl)phenyl)ethoxy)-1H-indol-3-yl)acetamide] | 1000 to 5000 |
| O=C(Nc1c[nH]c2ccc(OCCC3CCCN(CC(F)(F)F)C3)cc12)C1CC1 (stereo not shown) [Compound 498, N-(5-(2-(1-(2,2,2-trifluoroethyl)piperidin-3-yl)ethoxy)-1H-indol-3-yl)cyclopropanecarboxamide] | 200 to 1000 |

| SMILES | EC50 [nM] |
| --- | --- |
| CC(=O)Nc1c[nH]c2ccc(CCOC(C)(C)C3CCN(CC(F)(F)F)C3)cc12 (stereo not shown) [Compound 499, N-(5-(2-((2-(1-(2,2,2-trifluoroethyl)pyrrolidin-3-yl)propan-2-yl)oxy)ethyl)-1H-indol-3-yl)acetamide] | 5000 to 100000 |
| CC(=O)Nc1c[nH]c2ccc(CO[C@H]3C[C@@H](c4ccc(C(F)(F)F)cc4)C3)cc12 [Compound 500, N-(5-((cis-3-(4-(trifluoromethyl)phenyl)cyclobutoxy)methyl)-1H-indol-3-yl)acetamide] | 40 to 200 |
| CC(=O)Nc1c[nH]c2ccc(OCC[C@H]3CC[C@](O)(C(F)(F)F)CC3)cc12 [Compound 501, N-(5-(2-(cis-4-hydroxy-4-(trifluoromethyl)cyclohexyl)ethoxy)-1H-indol-3-yl)acetamide] | 1000 to 5000 |
| C[C@]1(C(=O)Nc2c[nH]c3ccc(OCC[C@@H]4C[C@@H]5CN(CC(F)(F)F)C[C@@H]5C4)cc23)CC[C@H](O)CC1 [Compound 504, (1r,4R)-4-hydroxy-1-methyl-N-(5-(2-((3aR,5r,6aS)-2-(2,2,2-trifluoroethyl)octahydrocyclopenta[c]pyrrol-5-yl)ethoxy)-1H-indol-3-yl)cyclohexane-1-carboxamide] | 200 to 1000 |
| C[C@]1(C(=O)Nc2c[nH]c3ccc(OCC[C@@H]4C[C@@H]5CN(CC(F)(F)F)C[C@@H]5C4)cc23)CC[C@@H](O)CC1 [Compound 505, (1s,4S)-4-hydroxy-1-methyl-N-(5-(2-((3aR,5r,6aS)-2-(2,2,2-trifluoroethyl)octahydrocyclopenta[c]pyrrol-5-yl)ethoxy)-1H-indol-3-yl)cyclohexane-1-carboxamide] | 200 to 1000 |
| CNC(Cc1ccc(C(F)(F)F)cc1)Cc1ccc2[nH]cc(NC(C)=O)c2c1 (stereo not shown) [Compound 506, N-(5-(2-(methylamino)-3-(4-(trifluoromethyl)phenyl)propyl)-1H-indol-3-yl)acetamide] | 5000 to 100000 |
| CC(=O)Nc1c[nH]c2ccc(CC3(c4ccc(C(F)(F)F)cc4)CCOC3)cc12 (stereo not shown) [Compound 507, N-(5-((3-(4-(trifluoromethyl)phenyl)tetrahydrofuran-3-yl)methyl)-1H-indol-3-yl)acetamide] | 5000 to 100000 |
| CC(=O)Nc1c[nH]c2ccc(CCC3(c4ccc(C(F)(F)F)cc4)COC3)cc12 [Compound 508, N-(5-(2-(3-(4-(trifluoromethyl)phenyl)oxetan-3-yl)ethyl)-1H-indol-3-yl)acetamide] | 5000 to 100000 |
| C[C@@H]1OC[C@H]1C(=O)Nc1c[nH]c2ccc(OCC[C@@H]3C[C@@H]4CN(CC(F)(F)F)C[C@@H]4C3)cc12 [Compound 509, (2S,3R)-2-methyl-N-(5-(2-((3aR,5r,6aS)-2-(2,2,2-trifluoroethyl)octahydrocyclopenta[c]pyrrol-5-yl)ethoxy)-1H-indol-3-yl)oxetane-3-carboxamide] | 1000 to 5000 |
| C[C@H]1OC[C@H]1C(=O)Nc1c[nH]c2ccc(OCC[C@@H]3C[C@@H]4CN(CC(F)(F)F)C[C@@H]4C3)cc12 [Compound 510, (2R,3R)-2-methyl-N-(5-(2-((3aR,5r,6aS)-2-(2,2,2-trifluoroethyl)octahydrocyclopenta[c]pyrrol-5-yl)ethoxy)-1H-indol-3-yl)oxetane-3-carboxamide] | 200 to 1000 |
| C[C@]1(C(=O)Nc2c[nH]c3ccc(OCC[C@@H]4C[C@@H]5CN(CC(F)(F)F)C[C@@H]5C4)cc23)C[C@@H](CO)C1 [Compound 511, (1s,3S)-3-(hydroxymethyl)-1-methyl-N-(5-(2-((3aR,5r,6aS)-2-(2,2,2-trifluoroethyl)octahydrocyclopenta[c]pyrrol-5-yl)ethoxy)-1H-indol-3-yl)cyclobutane-1-carboxamide] | 200 to 1000 |
| C[C@]1(C(=O)Nc2c[nH]c3ccc(OCC[C@@H]4C[C@@H]5CN(CC(F)(F)F)C[C@@H]5C4)cc23)C[C@H](CO)C1 [Compound 512, (1r,3R)-3-(hydroxymethyl)-1-methyl-N-(5-(2-((3aR,5r,6aS)-2-(2,2,2-trifluoroethyl)octahydrocyclopenta[c]pyrrol-5-yl)ethoxy)-1H-indol-3-yl)cyclobutane-1-carboxamide] | 200 to 1000 |
| C[C@]1(C(=O)Nc2c[nH]c3ccc(OCC[C@@H]4C[C@@H]5CN(CC(F)(F)F)C[C@@H]5C4)cc23)C[C@@H](O)C1 [Compound 513, (1s,3S)-3-hydroxy-1-methyl-N-(5-(2-((3aR,5r,6aS)-2-(2,2,2-trifluoroethyl)octahydrocyclopenta[c]pyrrol-5-yl)ethoxy)-1H-indol-3-yl)cyclobutane-1-carboxamide] | 200 to 1000 |
| C[C@]1(C(=O)Nc2c[nH]c3ccc(OCC[C@@H]4C[C@@H]5CN(CC(F)(F)F)C[C@@H]5C4)cc23)C[C@H](O)C1 [Compound 514, (1r,3R)-3-hydroxy-1-methyl-N-(5-(2-((3aR,5r,6aS)-2-(2,2,2-trifluoroethyl)octahydrocyclopenta[c]pyrrol-5-yl)ethoxy)-1H-indol-3-yl)cyclobutane-l-carboxamide] | 200 to 1000 |
| CO[C@H]1C[C@@](C)(C(=O)Nc2c[nH]c3ccc(OCC[C@@H]4C[C@@H]5CN(CC(F)(F)F)C[C@@H]5C4)cc23)C1 [Compound 515, (1s,3S)-3-methoxy-1-methyl-N-(5-(2-((3aR,5r,6aS)-2-(2,2,2-trifluoroethyl)octahydrocyclopenta[c]pyrrol-5-yl)ethoxy)-1H-indol-3-yl)cyclobutane-1-carboxamide] | 1000 to 5000 |
